Data as given in article PMC8657793, “Synthesis, In Vitro and In Silico Anticancer Activity of New 4-Methylbenzamide Derivatives Containing 2,6-Substituted Purines as Potential Protein Kinases Inhibitors” (International Journal of Molecular Sciences, 2021).

Columns and labels:
HER2 = biological target: T1, HER2 (Homo sapiens, UniProt P04626); assay: Kinase Selectivity Profiling System TK-1 / ADP-Glo, HER2; type: biochemical
T1 construct: purchased Promega
Experimental: (§1) At the end, 10 μL of kinase detection reagent was added into the well and incubated for 30 min to produce a luminescence signal.

EGFR = biological target: T2, EGFR (Homo sapiens, UniProt P00533); assay: Kinase Selectivity Profiling System TK-1 / ADP-Glo, EGFR; type: biochemical
T2 construct: purchased Promega
Experimental: as §1

Bcr–Abl1 kinase = biological target: T3, Bcr–Abl1 kinase (Homo sapiens, UniProt P00519); assay: Abl1 Kinase Enzyme System / ADP-Glo kinase assay; type: biochemical; settings: ATP 50 μM; for inhibition at 0.5 µM: 0.5 µM compound; for inhibition at 10 µM: 10 µM compound
T3 construct: purchased Promega
Experimental: as §1

InsR = biological target: T4, InsR (Homo sapiens, UniProt P06213); assay: Kinase Selectivity Profiling System TK-1 / ADP-Glo, InsR; type: biochemical
T4 construct: purchased Promega
Experimental: as §1

HER4 = biological target: T5, HER4 (Homo sapiens, UniProt Q15303); assay: Kinase Selectivity Profiling System TK-1 / ADP-Glo, HER4; type: biochemical
T5 construct: purchased Promega
Experimental: as §1

PDGFRα = biological target: T6, PDGFRα (Homo sapiens, UniProt P16234); assay: Kinase Selectivity Profiling System TK-1 / ADP-Glo, PDGFRα; type: biochemical
T6 construct: purchased Promega
Excerpt: Considering the presence of a purine ring in the compounds under study, type 1 binding to protein kinases could be expected. We investigated the kinase selectivity of targeted compounds 7–16 against eight receptor tyrosine kinases including EGFR, HER2 and HER4 (epidermal growth factor receptors), IGF1R (insulin-like growth factor 1 receptor), InsR (insulin receptor), KDR (vascular endothelial growth factor receptor 2—VEGFR-2), and PDGFRα and PDGFRβ (platelet-derived growth factor receptors). The assay was performed using the Kinase Selectivity Profiling System TK-1 (Promega, Madison, WI, USA) and ADP-Glo™ Kinase assay kit (Promega, Madison, WI, USA). Kinase activity was measured by quantifying the […] following a kinase reaction. Enzymatic activity inhibition percentage caused by studied compounds was evaluated at the single concentration of 1 μM.
The Abl1 inhibitory activity assay was performed using Abl1 Kinase Enzyme System (Promega, Madison, WI, USA) and ADP-Glo™ Kinase assay kit (Promega, Madison, WI, USA) according to the Technical Manual. The general procedure was as follows: kinase (2.5 ng/reaction) was incubated with substrate (1 μg), compound (0.5 and 10µM) and ATP (50 μM) in a commercial buffer solution with a reaction volume of 5 μL. In every experiment, no-enzyme and no-compound control reactions were included to represent background luminescence (0% activity) and uninhibited kinase activity (100% activity), respectively. The assay 384-well plate was incubated at room temperature for 1 h. Afterwards, 5μL of ADP-Glo reagent was added into each well to stop the reaction and consume the […] within 40 min. At the end, 10 μL of kinase detection reagent was added into the well and incubated for 30 min to produce a luminescence signal. Kinase activity assays were performed in triplicate at each inhibitor concentration. The luminescence was measured with the help of a Tecan Infinite M200 Plate Reader. The luminescence data were analyzed using the computer software, Magellan™. Percent kinase activity (KA) was calculated by subtracting the average no-enzyme control luminescence values from all kinase-containing reactions with or without compound, then converting these net luminescence values to percent activity based on the no-compound control reactions representing 100% kinase activity. Inhibition (I, %) was calculated as 100%-KA.
The single-dose screening of kinase selectivity was performed using Kinase Selectivity Profiling System TK-1 (Promega, Madison, WI, USA) and ADP-Glo™ Kinase assay kit (Promega, Madison, WI, USA) according to Technical Manual. Kinase Selectivity Profiling System TK-1 includes a set of kinases from the tyrosine kinase family (EGFR, HER2, HER4, IGF1R, InsR, KDR, PDGFα, PDGFβ) in 8-tube strip format. The general procedure was as follow: kinase working stock (2 µL/reaction) was incubated with ATP/substrate working stock (1 µL) and compound (1 µM) in a commercial buffer solution with a reaction volume of 5 μL. The reaction conditions and inhibition (%) calculation were the same as in Section 3.3.1. Kinase activity assays were performed in duplicate at each inhibitor.

IGF1R = biological target: T7, IGF1R (Homo sapiens, UniProt P08069); assay: Kinase Selectivity Profiling System TK-1 / ADP-Glo, IGF1R; type: biochemical
T7 construct: purchased Promega
Experimental: as §1

[1] = test system: HL-60 (promyelocytic leukemia); assay: MTT anti-proliferative assay, HL-60; type: cell-based; settings: Homo sapiens, 48 h
Experimental: (§2) For the in vitro assays, a stock solution (1% DMSO in the appropriate buffer with the tested compound diluted under sonication) was prepared from which several dilutions were made with the appropriate buffer.
(§3) Human cell lines were obtained from the Institute of Cytology, Russian Academy of Sciences. […] Plates were incubated under standard conditions for 48 h.

KDR (VEGFR-2) = biological target: T8, KDR (VEGFR-2) (Homo sapiens, UniProt P35968); assay: Kinase Selectivity Profiling System TK-1 / ADP-Glo, KDR; type: biochemical
T8 construct: purchased Promega
Experimental: as §1

[2] = test system: RPMI 1788 (B lymphocyte, normal human lymphoblastoid cells); assay: MTT assay on normal cells RPMI 1788; type: cell-based
Experimental: (§4) To determine the selectivity of the synthesized compounds 7–16 toward various cancer cells and normal human cells, the anti-proliferative activity against K562 (chronic myelogenous leukemia), HL-60 (promyelocytic leukemia), MCF-7 (breast adenocarcinoma), HeLa (cervix carcinoma), HepG2 (human liver cancer), A549 (lung carcinoma), OKP-GS (renal cell carcinoma), and normal cells RPMI 1788 (B lymphocyte, the human cell line) was investigated.
as §2, with “Each in vitro experiment was performed at least in triplicate and the standard deviation of absorbance was less than 10% of the mean. For” for “For”
Human cell lines were obtained from the Institute of Cytology, Russian Academy of Sciences. The cell lines studied were maintained in RPMI 1640 medium (AppliChem, Darmstadt, Germany) supplemented with 20% (HL-60, RPMI 1788) fetal calf serum (HyClone, Cramlington, UK), in DMEM (A 549) and Eagle’s MEM (AppliChem) (MCF7, HeLa) with 10% fetal calf serum (HyClone). Cells were cultivated at 37 °C in a humidified atmosphere of 5% CO2. Cellular sensitivities to synthesized compounds and standards were measured with the MTT assay. Cells were plated in triplicate in 96-well plates (10^5 cells/well for suspended cell cultures and 5 × 10^3 cells/well for monolayer cultures); on the same day (suspended cell cultures) or on the following day (monolayer cultures), compounds were added at the appropriate dilutions. […] The reference drugs were imatinib, sorafenib and nilotinib. Plates were incubated under standard conditions for 48 h. Thereafter, 10 μL MTT (Sigma) in phosphate-buffered saline (5 mg/mL) was added. The plates were incubated for an additional 4 h and 150 μL dimethylsulphoxide (DMSO) was added to dissolve the formazan crystals. The optical density was read on a HALO MPR-95 Microplate Reader (Dynamica Scientific Ltd., Melbourne, Victoria, Australia) at 570 nm. The antiproliferative effects were taken as degrees of inhibition of tumor cells (%). The average of three parallel measurements was calculated for each concentration of test compound. The degree of cell growth suppression was plotted as a function of the logarithm of the concentration. The half maximal inhibitory concentration (IC50) was determined graphically for active compounds.

PDGFRβ = biological target: T9, PDGFRβ (Homo sapiens, UniProt P09619); assay: Kinase Selectivity Profiling System TK-1 / ADP-Glo, PDGFRβ; type: biochemical
T9 construct: purchased Promega
Experimental: as §1

[3] = test system: K562 (chronic myelogenous leukemia); assay: MTT anti-proliferative assay, K562; type: cell-based; settings: Homo sapiens, 48 h
Experimental: as §2, §3

[4] = test system: OKP-GS (renal cell carcinoma); assay: MTT anti-proliferative assay, OKP-GS; type: cell-based; settings: Homo sapiens, 48 h
Experimental: as §4
as §2, with “Each in vitro experiment was performed at least in triplicate and the standard deviation of absorbance was less than 10% of the mean. For” for “For”
Human cell lines were obtained from the Institute of Cytology, Russian Academy of Sciences. The cell lines studied were maintained in RPMI 1640 medium (AppliChem, Darmstadt, Germany) supplemented with 20% (HL-60, RPMI 1788) fetal calf serum (HyClone, Cramlington, UK), in DMEM (A 549) and Eagle’s MEM (AppliChem) (MCF7, HeLa) with 10% fetal calf serum (HyClone). Cells were cultivated at 37 °C in a humidified atmosphere of 5% CO2. Cellular sensitivities to synthesized compounds and standards were measured with the MTT assay. Cells were plated in triplicate in 96-well plates (10^5 cells/well for suspended cell cultures and 5 × 10^3 cells/well for monolayer cultures); on the same day (suspended cell cultures) or on the following day (monolayer cultures), compounds were added at the appropriate dilutions. Anti-proliferative activity was studied at concentrations 0.1–50.0 µM. The reference drugs were imatinib, sorafenib and nilotinib. Plates were incubated under standard conditions for 48 h. Thereafter, 10 μL MTT (Sigma) in phosphate-buffered saline (5 mg/mL) was added. The plates were incubated for an additional 4 h and 150 μL dimethylsulphoxide (DMSO) was added to dissolve the formazan crystals. The optical density was read on a HALO MPR-95 Microplate Reader (Dynamica Scientific Ltd., Melbourne, Victoria, Australia) at 570 nm. The antiproliferative effects were taken as degrees of inhibition of tumor cells (%). The average of three parallel measurements was calculated for each concentration of test compound. The degree of cell growth suppression was plotted as a function of the logarithm of the concentration. The half maximal inhibitory concentration (IC50) was determined graphically for active compounds.

T6 sequence (P16234 24-1089): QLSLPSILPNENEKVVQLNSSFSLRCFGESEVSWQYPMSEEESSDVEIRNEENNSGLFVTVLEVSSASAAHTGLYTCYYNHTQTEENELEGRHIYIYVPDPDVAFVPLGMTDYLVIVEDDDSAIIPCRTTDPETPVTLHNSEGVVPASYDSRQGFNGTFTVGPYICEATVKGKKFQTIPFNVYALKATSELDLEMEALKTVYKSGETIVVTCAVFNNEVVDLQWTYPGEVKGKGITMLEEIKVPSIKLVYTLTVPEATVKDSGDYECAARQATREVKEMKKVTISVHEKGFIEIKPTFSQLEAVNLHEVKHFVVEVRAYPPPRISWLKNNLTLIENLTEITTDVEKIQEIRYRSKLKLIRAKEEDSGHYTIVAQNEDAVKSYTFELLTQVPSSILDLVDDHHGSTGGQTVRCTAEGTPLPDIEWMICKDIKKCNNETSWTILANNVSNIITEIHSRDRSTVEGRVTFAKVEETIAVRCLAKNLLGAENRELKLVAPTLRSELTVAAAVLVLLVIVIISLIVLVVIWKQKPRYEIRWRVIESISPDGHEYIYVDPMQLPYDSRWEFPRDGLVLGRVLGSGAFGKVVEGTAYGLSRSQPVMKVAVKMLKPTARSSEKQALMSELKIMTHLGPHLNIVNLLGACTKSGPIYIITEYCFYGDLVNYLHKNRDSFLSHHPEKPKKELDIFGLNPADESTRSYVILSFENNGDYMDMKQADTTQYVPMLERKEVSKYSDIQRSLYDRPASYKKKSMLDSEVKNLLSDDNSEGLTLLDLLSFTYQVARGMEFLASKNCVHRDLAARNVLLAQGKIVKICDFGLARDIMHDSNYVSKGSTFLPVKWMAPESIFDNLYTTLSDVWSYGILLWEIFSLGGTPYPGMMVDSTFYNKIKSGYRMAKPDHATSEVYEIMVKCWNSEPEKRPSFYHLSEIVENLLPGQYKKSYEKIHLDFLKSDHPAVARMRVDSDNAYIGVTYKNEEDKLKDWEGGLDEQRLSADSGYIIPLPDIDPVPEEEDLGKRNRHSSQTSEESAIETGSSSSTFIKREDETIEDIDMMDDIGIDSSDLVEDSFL
T7 sequence (P08069 31-1367): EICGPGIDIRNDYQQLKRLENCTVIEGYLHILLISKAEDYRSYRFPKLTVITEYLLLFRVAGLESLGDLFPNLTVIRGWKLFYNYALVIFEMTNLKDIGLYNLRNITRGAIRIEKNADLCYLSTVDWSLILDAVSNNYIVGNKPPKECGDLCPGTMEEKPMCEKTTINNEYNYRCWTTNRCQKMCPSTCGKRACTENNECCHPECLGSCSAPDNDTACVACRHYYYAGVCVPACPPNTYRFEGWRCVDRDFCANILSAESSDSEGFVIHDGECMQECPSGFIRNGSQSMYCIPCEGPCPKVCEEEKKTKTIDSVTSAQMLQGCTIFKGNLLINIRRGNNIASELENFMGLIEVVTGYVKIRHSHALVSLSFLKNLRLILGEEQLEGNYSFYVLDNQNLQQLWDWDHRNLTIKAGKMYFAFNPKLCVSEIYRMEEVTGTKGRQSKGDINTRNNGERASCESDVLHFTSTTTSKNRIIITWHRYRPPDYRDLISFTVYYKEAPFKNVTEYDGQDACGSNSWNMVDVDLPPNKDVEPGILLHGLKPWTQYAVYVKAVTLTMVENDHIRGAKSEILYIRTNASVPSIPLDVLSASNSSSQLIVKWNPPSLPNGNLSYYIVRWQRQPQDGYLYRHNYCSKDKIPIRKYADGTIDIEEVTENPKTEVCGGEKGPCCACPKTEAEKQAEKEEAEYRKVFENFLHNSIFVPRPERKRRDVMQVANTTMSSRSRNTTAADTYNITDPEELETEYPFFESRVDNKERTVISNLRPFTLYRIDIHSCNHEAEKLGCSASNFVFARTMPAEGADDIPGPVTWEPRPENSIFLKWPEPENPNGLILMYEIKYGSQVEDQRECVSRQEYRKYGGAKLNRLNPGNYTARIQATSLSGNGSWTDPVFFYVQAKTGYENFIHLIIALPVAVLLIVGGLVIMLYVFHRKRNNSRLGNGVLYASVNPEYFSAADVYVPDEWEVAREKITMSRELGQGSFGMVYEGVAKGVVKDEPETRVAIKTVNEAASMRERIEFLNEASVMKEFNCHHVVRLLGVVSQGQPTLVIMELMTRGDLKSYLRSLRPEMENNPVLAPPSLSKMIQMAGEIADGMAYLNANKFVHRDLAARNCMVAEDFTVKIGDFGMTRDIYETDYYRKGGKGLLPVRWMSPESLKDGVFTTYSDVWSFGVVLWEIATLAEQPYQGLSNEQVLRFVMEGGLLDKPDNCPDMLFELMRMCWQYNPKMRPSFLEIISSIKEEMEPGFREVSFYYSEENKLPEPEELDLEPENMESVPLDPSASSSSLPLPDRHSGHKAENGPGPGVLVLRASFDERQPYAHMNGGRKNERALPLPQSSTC
T4 sequence (P06213 28-1382): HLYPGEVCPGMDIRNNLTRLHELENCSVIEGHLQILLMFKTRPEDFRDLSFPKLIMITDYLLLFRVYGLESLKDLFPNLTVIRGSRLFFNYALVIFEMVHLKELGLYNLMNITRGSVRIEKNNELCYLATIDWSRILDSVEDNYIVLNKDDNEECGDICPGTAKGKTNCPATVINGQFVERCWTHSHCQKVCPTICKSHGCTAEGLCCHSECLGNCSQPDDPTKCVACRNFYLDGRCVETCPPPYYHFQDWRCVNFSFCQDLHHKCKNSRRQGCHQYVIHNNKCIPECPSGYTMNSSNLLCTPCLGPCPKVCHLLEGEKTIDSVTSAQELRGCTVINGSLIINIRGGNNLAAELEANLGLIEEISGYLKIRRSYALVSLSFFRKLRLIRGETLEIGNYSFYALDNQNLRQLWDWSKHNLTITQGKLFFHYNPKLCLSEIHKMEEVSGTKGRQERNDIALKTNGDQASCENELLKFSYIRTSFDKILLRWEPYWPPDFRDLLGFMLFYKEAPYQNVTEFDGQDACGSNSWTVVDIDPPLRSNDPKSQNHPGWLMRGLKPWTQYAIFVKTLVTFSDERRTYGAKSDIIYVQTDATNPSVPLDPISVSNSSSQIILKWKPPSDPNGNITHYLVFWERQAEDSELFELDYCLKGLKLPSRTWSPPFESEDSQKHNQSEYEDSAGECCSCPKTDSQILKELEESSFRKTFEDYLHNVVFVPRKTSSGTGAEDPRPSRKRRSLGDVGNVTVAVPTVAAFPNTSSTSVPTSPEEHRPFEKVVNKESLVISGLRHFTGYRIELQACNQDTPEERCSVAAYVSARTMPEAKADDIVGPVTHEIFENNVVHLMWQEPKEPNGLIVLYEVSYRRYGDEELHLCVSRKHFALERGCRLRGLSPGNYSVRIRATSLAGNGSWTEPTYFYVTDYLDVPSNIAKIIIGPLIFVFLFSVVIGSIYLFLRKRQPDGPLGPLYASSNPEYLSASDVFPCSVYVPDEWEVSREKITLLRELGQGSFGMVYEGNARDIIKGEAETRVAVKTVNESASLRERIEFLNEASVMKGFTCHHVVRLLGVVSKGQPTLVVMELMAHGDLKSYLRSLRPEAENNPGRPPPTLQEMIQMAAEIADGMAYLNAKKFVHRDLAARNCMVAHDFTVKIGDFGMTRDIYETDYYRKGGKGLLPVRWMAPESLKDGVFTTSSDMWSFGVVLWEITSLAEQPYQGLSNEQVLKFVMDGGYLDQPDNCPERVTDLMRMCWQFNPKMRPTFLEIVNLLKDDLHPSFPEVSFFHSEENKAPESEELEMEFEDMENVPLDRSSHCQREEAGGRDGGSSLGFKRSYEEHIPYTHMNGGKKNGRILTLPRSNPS
T2 sequence (P00533 25-1210): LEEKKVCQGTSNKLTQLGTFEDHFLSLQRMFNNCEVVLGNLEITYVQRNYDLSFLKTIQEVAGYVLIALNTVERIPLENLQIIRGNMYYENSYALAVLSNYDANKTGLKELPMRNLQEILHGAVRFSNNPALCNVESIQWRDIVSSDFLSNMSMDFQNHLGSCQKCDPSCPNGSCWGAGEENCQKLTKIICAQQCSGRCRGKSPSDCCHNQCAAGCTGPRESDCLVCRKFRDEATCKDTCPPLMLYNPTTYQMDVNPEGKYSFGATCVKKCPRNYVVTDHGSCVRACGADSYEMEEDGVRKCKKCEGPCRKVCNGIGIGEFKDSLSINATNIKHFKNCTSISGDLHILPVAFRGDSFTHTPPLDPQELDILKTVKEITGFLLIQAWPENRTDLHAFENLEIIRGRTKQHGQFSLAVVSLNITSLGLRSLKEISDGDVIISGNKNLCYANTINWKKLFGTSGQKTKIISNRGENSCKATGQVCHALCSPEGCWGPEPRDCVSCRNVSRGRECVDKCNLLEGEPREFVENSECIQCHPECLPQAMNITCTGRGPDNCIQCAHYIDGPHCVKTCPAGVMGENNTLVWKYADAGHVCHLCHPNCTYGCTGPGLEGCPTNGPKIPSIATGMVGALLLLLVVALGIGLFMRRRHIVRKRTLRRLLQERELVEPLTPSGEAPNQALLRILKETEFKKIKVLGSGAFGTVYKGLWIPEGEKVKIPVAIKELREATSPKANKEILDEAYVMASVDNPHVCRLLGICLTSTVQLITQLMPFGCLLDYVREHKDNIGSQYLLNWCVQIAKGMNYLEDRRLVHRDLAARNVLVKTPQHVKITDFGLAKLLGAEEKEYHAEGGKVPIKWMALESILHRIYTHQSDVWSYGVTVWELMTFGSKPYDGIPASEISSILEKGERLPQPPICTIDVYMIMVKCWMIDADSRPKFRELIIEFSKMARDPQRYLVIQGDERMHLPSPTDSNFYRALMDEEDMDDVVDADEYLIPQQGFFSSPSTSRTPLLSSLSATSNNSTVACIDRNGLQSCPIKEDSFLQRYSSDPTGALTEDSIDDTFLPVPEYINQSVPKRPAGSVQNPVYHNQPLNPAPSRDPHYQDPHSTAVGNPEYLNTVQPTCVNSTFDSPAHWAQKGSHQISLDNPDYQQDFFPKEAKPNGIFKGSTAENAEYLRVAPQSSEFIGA

| inhibition at 1 µM (HER2) | inhibition at 1 µM (EGFR) | inhibition at 0.5 µM (Bcr–Abl1 kinase) | inhibition at 10 µM (Bcr–Abl1 kinase) | inhibition at 1 µM (InsR) | inhibition at 1 µM (HER4) | inhibition at 1 µM (PDGFRα) | inhibition at 1 µM (IGF1R) | IC50 [1] | melting point | inhibition at 1 µM (KDR (VEGFR-2)) | inhibition at 1 µM (PDGFRβ) | % Inhibition at 1 µM, HER2 (HER2) | IC50 [3] | IC50 [4] | SMILES | inhibition at 100 µM [2] |
| --- | --- | --- | --- | --- | --- | --- | --- | --- | --- | --- | --- | --- | --- | --- | --- | --- |
| 0% | 14% | 37% | 37% | 0% | 0% | 4% | 0% | 29.7 ± 1.19 µM | 230 to 232 °C | 12% | 0% |  |  |  | Cc1cn(-c2cc(NC(=O)c3ccc(Cn4cnc5c(N)nc(F)nc54)cc3)cc(C(F)(F)F)c2)cn1 [Compound 11, 4-((6-Amino-2-fluoro-9H-purin-9-yl)methyl)-N-(3-(4-methyl-1H-imidazol-1-yl)-5-(trifluoromethyl)phenyl)benzamide] | 93.4% |
| 22 to 26% | 15% | 23% | 34% | 0% | 23% | 13% | 5% | > 50 µM | 309 to 311 °C | 14% | 32% | 26% |  |  | Nc1nc(F)nc2c1ncn2Cc1ccc(C(=O)Nc2cccc(C(F)(F)F)c2)cc1 [Compound 8, 4-((6-Amino-2-fluoro-9H-purin-9-yl)methyl)-N-(3-(trifluoromethyl)phenyl)benzamide] | 33.5% |
|  |  |  |  |  |  |  |  | 55 µM |  |  |  |  | < 0.1 µM | 55 µM | Cc1cn(-c2cc(NC(=O)c3ccc(C)c(Nc4nccc(-c5cccnc5)n4)c3)cc(C(F)(F)F)c2)cn1 [Nilotinib, nilotinib, reference compound] | 71% |
| 0% | 11% | 39% | 34% | 0% | 0% | 45% | 0% |  |  | 2% | 36% |  |  |  | Nc1ncnc2c1ncn2Cc1ccc(C(=O)Nc2cccc(C(F)(F)F)c2)cc1 [Compound 9, 4-((6-Amino-9H-purin-9-yl)methyl)-N-(3-(trifluoromethyl)phenyl)benzamide] | 56.8% |
| 0% | 17% | 38% | 14% | 0% | 0% | 22% | 0% |  | 268 to 270 °C | 0% | 36% |  |  |  | Cc1cn(-c2cc(NC(=O)c3ccc(Cn4cnc5c(N)ncnc54)cc3)cc(C(F)(F)F)c2)cn1 [Compound 12, 4-((6-Amino-9H-purin-9-yl)methyl)-N-(3-(4-methyl-1H-imidazol-1-yl)-5-(trifluoromethyl)phenyl) benzamide] |  |
|  |  |  |  |  |  |  |  |  |  |  |  |  |  |  | Cc1ccc(NC(=O)c2ccc(CN3CCN(C)CC3)cc2)cc1Nc1nccc(-c2cccnc2)n1 [Imatinib, imatinib, reference compound] | 99% |
| 68% |  |  |  | 0% | 94% | 4% | 0% |  |  |  | 7% |  |  |  | CS(=O)(=O)CCNCc1ccc(-c2ccc3ncnc(Nc4ccc(OCc5cccc(F)c5)c(Cl)c4)c3c2)o1 [Lapatinib, lapatinib, reference compound] |  |
| 0% | 13% | 15% | 36% | 0% | 0% | 17% | 0% |  |  | 12% | 6% |  |  |  | Cc1cn(-c2cc(NC(=O)c3ccc(Cn4cnc5c(N)nc(Cl)nc54)cc3)cc(C(F)(F)F)c2)cn1 [Compound 16, 4-((6-Amino-2-chloro-9H-purin-9-yl)methyl)-N-(3-(4-methyl-1H-imidazol-1-yl)-5-(trifluoromethyl)phenyl)benzamide] | 5.91% |
